Reference: ChEMBL document CHEMBL1201862, “PubChem BioAssay data set” (2004)
The source made the active and inactive calls.

Assays:
BJ [1] = assay: cytotoxicity toward BJ-TERT fibroblasts, dose response, cell-based, RAS-independent, luminescence (AID 1933); assay type: functional; conditions: Homo sapiens
[2] = target: T1, Short transient receptor potential channel 4 (Mus musculus, UniProt Q9QUQ5); assay: mouse TRPC4 channel inhibitors, dose response, cell-based, HEK293 TRPC4/mu-opioid, Fluo-4 calcium (AID 434942); assay type: functional;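 further: potency of inhibitors blocking the TRPC4 calcium response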
T1 sequence (Q9QUQ5 whole entry): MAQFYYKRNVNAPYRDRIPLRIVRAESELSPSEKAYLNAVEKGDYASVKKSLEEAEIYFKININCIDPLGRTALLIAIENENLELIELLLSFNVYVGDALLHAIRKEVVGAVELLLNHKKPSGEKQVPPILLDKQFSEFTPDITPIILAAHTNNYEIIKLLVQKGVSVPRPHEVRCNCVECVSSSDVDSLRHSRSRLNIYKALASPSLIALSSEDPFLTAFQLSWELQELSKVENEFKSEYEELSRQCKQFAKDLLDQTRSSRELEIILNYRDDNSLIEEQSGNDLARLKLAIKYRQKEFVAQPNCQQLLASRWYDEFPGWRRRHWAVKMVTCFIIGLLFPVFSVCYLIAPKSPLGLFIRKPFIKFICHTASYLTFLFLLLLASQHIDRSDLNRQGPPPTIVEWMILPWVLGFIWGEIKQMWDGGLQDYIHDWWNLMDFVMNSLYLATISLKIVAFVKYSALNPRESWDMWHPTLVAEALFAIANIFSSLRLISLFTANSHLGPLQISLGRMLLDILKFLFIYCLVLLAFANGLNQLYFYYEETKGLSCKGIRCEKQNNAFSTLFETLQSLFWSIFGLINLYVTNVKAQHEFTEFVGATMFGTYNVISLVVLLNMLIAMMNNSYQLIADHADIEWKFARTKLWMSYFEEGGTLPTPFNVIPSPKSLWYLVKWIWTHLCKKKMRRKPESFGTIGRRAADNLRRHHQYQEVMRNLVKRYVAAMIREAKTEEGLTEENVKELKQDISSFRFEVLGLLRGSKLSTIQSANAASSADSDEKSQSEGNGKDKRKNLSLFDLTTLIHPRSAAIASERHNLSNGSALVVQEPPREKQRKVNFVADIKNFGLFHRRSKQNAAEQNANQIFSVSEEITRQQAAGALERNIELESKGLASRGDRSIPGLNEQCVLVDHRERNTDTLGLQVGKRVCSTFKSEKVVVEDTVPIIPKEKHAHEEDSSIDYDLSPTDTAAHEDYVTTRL

[3] = cytotoxicity toward DRD oncogenic fibroblasts, dose response, cell-based, non-viral oncogenic, luminescence (AID 1934); assay type: functional; conditions: Homo sapiens
BJ [4] = assay: cells; assay type: functional, cell-based; conditions: Homo sapiens
BJ [5] = assay: cytotoxicity toward BJ-TERT-LT-ST fibroblasts, dose response, cell-based, RAS-independent, luminescence (AID 1935); assay type: functional; conditions: Homo sapiens;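 further: BJ fibroblasts immortalized with TERT plus LT and ST oncogenes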
BJ [6] = assay: cytotoxicity toward Ras-transformed BJeLR fibroblasts, dose response, cell-based, alamar blue fluorescence, cherrypicked samples (AID 2631); assay type: functional; conditions: Homo sapiens;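 further: confirmatory dose-response assay in RAS-dependent BJ fibroblasts engineered with TERT, LT and ST, with cytotoxicity read by fluorescence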
Hexokinase HKDC1 = target: T2, Hexokinase HKDC1 (Homo sapiens, UniProt Q2TB90); assay: SAR analysis of small molecule inhibitors of hexokinase domain containing I (HKDC1). [Related pubchem assays (depositor defined):AID493160, AID493190]; assay type: functional
T2 sequence (Q2TB90 whole entry): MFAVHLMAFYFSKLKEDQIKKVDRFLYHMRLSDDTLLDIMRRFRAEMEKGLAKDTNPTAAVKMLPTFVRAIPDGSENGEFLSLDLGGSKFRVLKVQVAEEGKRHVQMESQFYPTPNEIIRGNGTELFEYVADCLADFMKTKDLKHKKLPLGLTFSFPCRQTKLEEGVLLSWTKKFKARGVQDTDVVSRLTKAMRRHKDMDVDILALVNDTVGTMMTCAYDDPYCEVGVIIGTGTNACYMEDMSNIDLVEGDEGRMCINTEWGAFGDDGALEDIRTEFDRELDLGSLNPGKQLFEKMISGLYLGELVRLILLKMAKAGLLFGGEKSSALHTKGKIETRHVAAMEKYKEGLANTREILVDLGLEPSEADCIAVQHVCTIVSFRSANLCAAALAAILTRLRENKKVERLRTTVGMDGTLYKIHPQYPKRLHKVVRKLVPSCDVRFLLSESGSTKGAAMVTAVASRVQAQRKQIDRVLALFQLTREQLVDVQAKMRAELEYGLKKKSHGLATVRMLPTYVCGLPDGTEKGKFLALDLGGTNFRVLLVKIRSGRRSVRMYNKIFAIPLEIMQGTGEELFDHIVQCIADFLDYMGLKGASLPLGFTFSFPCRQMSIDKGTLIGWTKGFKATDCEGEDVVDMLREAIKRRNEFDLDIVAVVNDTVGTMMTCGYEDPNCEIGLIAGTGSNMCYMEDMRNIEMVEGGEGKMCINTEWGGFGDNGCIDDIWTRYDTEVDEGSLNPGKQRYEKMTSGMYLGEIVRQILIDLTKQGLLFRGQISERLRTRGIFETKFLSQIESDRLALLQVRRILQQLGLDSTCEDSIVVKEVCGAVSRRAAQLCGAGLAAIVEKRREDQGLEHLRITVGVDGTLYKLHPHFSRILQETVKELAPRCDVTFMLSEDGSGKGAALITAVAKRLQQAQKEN

Hexokinase-1 = target: T3, Hexokinase-1 (Homo sapiens, UniProt P19367); assay: SAR analysis of small molecule inhibitors of hexokinase domain containing I (HKDC1) in the hexokinase 1 selectivity assay. [Related pubchem assays (depositor defined):AID493160, AID493190]; assay type: functional
T3 sequence (P19367 whole entry): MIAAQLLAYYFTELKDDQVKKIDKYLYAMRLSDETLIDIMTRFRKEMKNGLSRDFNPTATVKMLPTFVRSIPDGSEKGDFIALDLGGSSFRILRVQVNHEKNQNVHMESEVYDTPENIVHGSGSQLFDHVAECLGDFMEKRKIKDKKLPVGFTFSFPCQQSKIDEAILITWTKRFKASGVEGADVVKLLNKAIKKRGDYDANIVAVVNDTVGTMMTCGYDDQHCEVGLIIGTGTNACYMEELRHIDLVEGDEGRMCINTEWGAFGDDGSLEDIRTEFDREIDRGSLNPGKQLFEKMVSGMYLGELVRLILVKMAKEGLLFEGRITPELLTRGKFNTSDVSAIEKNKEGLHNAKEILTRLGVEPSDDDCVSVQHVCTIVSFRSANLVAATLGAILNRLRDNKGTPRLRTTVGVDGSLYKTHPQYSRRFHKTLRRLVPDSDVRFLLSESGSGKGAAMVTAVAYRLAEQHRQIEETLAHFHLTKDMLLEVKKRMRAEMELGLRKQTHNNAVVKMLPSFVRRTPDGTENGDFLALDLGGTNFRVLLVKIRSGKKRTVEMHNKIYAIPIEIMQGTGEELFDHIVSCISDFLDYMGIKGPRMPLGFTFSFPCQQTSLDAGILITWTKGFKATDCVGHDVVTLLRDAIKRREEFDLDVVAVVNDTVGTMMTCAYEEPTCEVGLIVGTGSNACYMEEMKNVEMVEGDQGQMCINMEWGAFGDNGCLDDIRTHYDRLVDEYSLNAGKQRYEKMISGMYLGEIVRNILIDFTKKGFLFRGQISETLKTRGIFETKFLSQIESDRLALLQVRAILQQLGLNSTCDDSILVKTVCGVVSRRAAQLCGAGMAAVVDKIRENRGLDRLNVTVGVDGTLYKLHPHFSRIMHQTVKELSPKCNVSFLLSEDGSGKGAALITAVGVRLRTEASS

HeLa = assay: HeLa cell cytotoxicity, dose response, cytotoxicity control, 48 h, plate reader, cherry-picks (AID 504942); assay type: functional, cell-based; conditions: Homo sapiens
[7] = target: T4, Acyl-homoserine lactone acylase PvdQ (Pseudomonas aeruginosa (strain LESB58), UniProt Q9I194); assay: P. aeruginosa PvdQ acylase inhibitors, dose response, biochemical, fluorescence, plate reader and imaging, cherry-picks (AID 493231)
T4 sequence (Q9I194 whole entry): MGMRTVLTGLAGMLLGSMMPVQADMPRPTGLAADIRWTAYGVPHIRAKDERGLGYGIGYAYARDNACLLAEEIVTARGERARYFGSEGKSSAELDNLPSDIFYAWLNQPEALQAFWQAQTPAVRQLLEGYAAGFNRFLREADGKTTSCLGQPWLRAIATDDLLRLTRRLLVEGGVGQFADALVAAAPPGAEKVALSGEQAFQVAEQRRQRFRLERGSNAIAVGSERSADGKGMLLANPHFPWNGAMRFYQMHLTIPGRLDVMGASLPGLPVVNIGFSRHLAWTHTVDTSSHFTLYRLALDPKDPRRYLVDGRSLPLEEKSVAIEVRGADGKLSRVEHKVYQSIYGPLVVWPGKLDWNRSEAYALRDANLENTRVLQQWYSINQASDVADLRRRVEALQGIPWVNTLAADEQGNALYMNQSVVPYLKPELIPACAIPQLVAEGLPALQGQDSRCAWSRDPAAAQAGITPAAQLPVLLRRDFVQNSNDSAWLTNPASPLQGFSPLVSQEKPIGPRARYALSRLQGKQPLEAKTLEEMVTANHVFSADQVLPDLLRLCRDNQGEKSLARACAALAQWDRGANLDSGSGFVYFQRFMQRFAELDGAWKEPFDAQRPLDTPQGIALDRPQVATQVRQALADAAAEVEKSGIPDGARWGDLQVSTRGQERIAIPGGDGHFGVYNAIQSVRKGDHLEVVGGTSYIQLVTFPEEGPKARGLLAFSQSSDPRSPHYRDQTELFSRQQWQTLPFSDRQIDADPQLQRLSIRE

Protein skinhead-1 = target: T5, Protein skinhead-1 (Caenorhabditis elegans, UniProt P34707); assay type: functional
T5 sequence (P34707 whole entry): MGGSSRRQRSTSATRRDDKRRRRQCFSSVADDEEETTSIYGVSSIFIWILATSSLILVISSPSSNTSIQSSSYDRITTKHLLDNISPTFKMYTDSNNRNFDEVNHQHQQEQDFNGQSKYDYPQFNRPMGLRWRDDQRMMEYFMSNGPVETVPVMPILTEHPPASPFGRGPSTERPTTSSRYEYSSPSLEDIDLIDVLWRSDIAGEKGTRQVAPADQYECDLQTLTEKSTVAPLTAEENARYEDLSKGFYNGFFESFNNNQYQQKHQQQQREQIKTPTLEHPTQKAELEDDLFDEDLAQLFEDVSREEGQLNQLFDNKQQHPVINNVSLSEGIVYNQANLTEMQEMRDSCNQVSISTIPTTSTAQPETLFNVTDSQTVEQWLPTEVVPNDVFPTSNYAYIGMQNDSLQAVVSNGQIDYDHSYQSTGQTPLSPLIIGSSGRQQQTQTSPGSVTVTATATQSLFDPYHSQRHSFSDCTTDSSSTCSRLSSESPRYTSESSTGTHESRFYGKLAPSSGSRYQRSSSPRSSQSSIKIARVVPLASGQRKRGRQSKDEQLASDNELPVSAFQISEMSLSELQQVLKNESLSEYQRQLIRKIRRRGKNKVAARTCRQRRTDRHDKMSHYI

[8] = target: T6, Endoribonuclease toxin MazF (Escherichia coli K-12, UniProt P0AE70); assay: MazF toxin RNase activators, dose response, biochemical, fluorescence, single-stranded RNA substrate, uHTS hits (AID 588481); assay type: functional
T6 sequence (P0AE70 whole entry): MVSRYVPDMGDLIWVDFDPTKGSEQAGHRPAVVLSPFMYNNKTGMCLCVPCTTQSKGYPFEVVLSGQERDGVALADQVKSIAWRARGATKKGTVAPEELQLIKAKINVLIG

[9] = target: T7, Oxysterols receptor LXR-beta (Homo sapiens, UniProt P55055); assay: LXR agonists, Gal4 luciferase reporter, dose response, counter-screen for ssDAF-12 agonist project, cell-based, luminescence, HEK293, S. stercoralis campaign (AID 720737); assay type: functional; conditions: read-out: IC50 (the source's name)
T7 sequence (P55055 whole entry): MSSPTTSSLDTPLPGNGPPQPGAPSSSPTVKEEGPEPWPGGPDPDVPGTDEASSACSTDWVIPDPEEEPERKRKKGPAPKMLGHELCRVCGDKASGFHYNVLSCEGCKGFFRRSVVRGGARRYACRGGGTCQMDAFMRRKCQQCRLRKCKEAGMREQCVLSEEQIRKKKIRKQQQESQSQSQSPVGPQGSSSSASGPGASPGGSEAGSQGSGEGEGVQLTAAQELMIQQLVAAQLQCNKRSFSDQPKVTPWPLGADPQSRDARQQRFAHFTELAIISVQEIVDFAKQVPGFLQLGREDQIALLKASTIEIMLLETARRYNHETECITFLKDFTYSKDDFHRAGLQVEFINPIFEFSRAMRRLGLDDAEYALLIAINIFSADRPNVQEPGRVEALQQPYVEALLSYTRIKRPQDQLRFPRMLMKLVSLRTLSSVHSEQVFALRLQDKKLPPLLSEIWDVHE

[10] = target: T6, Endoribonuclease toxin MazF; assay: fluorescent RNA oligo signal without MazF, dose response, counter-screen for MazEF activator project, biochemical, fluorescence, single-stranded RNase substrate (AID 588502); assay type: functional
[11] = Luminescence-based cell-based high throughput dose response assay to identify activators of the DAF-12 from the parasite S. stercoralis (ssDAF-12).; assay type: functional
HEK293 [12] = assay: SAR Analysis of small molecule inhibitors of T-cell specific antigen receptor-induced NF-kB activation in a HEK-293T cell line using a luminescence assay - Set 2. [Related pubchem assays (depositor defined):AID435003, AID435012, AID489026]; assay type: functional, cell-based; conditions: Homo sapiens
HEK293 [13] = assay: cytotoxicity in HEK293T NF-kB-Luc cells, SAR follow-up, cytotoxicity control for NF-kB activator project, cell-based, resazurin fluorescence (AID 493251); assay type: functional; conditions: Homo sapiens
Jurkat = assay: SAR Analysis of small molecule inhibitors of T-cell specific antigen receptor-induced NF-kB activation in a Jurkat cell line using a luminescence assay - Set 2. [Related pubchem assays (depositor defined):AID435003, AID435012, AID465]; assay type: functional, cell-based; conditions: Homo sapiens

## COC(=O)c1cccc(Nc2c3c(nc4ccccc24)CCC3)c1
BJ [1]
  EC50: 28.4 µM (active)
[2]
  EC50: 2.11 µM (active)
[3]
  EC50: 19.2 µM (active)
BJ [4]
  EC50: 18.2 µM (active)
BJ [5]
  EC50: > 150 µM (inconclusive)
BJ [6]
  EC50: > 133 µM (inactive)

## Cc1cccc(/C=C/c2nc3ccccc3c(=O)n2Cc2ccccc2)c1
Hexokinase HKDC1
  IC50: > 80 µM (inactive)
Hexokinase-1
  IC50: > 80 µM (inactive)

## N#C/C(=C/c1ccco1)c1nc2ccccc2s1
HeLa
  AC50: 53.7 µM (active)
[7]
  AC50: 12.5 µM (active)
Protein skinhead-1
  IC50: > 100 µM (inactive)
[8]
  EC50: 23.7 µM (inactive)
[9]
  EC50: > 67.5 µM (inactive)
[10]
  EC50: 54.8 µM (inactive)
[11]
  IC50: > 67.5 µM (inactive)

## Cc1ccc(C)c(NC(=O)c2ccc([N+](=O)[O-])o2)c1
HEK293 [12]
  IC50: 46.6 µM (inactive)
HEK293 [13]
  IC50: > 80 µM (inactive)
Jurkat
  IC50: 14.1 µM (active)
